Assay results published in PubChem BioAssay AID1963865 (Molecular Pharmacology Branch, DTP, NCI, 2024).

System: KRAS PDC multicell spheroid viability
Assay: Anticancer human tumor 825966-067-R-J1-PDC patient-derived colon carcinoma cell line growth inhibition [KRAS2]
Conditions: for viability, T/C: stronger effect = lower value
How it was run: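 KRAS-mutant tumor cells were grown as spheroids with HUVEC endothelial cells and human MSCs as stroma. Targeted agents were tested alone and with KRAS pathway inhibitors. Doses started at or near clinical Cmax, or 10 microM, descending half-log.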

[1] = curve of first compound, second compound 0.1 µM
[2] = curve of first compound, second compound 0.316 µM
[3] = curve of first compound, second compound 1 µM
[4] = curve of first compound, second compound 3.16 µM
[5] = curve of first compound, second compound 10 µM
[6] = second compound 0.1 µM, first compound 0.00316 µM
[7] = second compound 0.1 µM, first compound 0.01 µM
[8] = second compound 0.1 µM, first compound 0.0316 µM
[9] = second compound 0.1 µM, first compound 0.1 µM
[10] = second compound 0.316 µM, first compound 0.00316 µM
[11] = second compound 0.316 µM, first compound 0.01 µM
[12] = second compound 0.316 µM, first compound 0.0316 µM
[13] = second compound 0.316 µM, first compound 0.1 µM
[14] = second compound 1 µM, first compound 0.00316 µM
[15] = second compound 1 µM, first compound 0.01 µM
[16] = second compound 1 µM, first compound 0.0316 µM
[17] = second compound 1 µM, first compound 0.1 µM
[18] = second compound 3.16 µM, first compound 0.00316 µM
[19] = second compound 3.16 µM, first compound 0.01 µM
[20] = second compound 3.16 µM, first compound 0.0316 µM
[21] = second compound 3.16 µM, first compound 0.1 µM
[22] = second compound 10 µM, first compound 0.00316 µM
[23] = second compound 10 µM, first compound 0.01 µM
[24] = second compound 10 µM, first compound 0.0316 µM
[25] = second compound 10 µM, first compound 0.1 µM
[26] = second compound 0.1 µM, first compound 0.316 µM
[27] = second compound 0.1 µM, first compound 1 µM
[28] = second compound 0.316 µM, first compound 0.316 µM
[29] = second compound 0.316 µM, first compound 1 µM
[30] = second compound 1 µM, first compound 0.316 µM
[31] = second compound 1 µM, first compound 1 µM
[32] = second compound 3.16 µM, first compound 0.316 µM
[33] = second compound 3.16 µM, first compound 1 µM
[34] = second compound 10 µM, first compound 0.316 µM
[35] = second compound 10 µM, first compound 1 µM
[36] = second compound 0.1 µM, first compound 3.16 µM
[37] = second compound 0.1 µM, first compound 10 µM
[38] = second compound 0.316 µM, first compound 3.16 µM
[39] = second compound 0.316 µM, first compound 10 µM
[40] = second compound 1 µM, first compound 3.16 µM
[41] = second compound 1 µM, first compound 10 µM
[42] = second compound 3.16 µM, first compound 3.16 µM
[43] = second compound 3.16 µM, first compound 10 µM
[44] = second compound 10 µM, first compound 3.16 µM
[45] = second compound 10 µM, first compound 10 µM
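Further: spheroids exposed to compounds for 7 days.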
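Wherever viability, T/C is given: 100% = DMSO vehicle control viability.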

Row | SMILES | IC50 [1] [nM] | IC50 [2] [nM] | IC50 [3] [nM] | IC50 [4] [nM] | IC50 [5] [nM] | viability, T/C [8] [%] | viability, T/C [9] [%] | viability, T/C [12] [%] | viability, T/C [13] [%] | viability, T/C [16] [%] | viability, T/C [17] [%] | viability, T/C [20] [%] | viability, T/C [21] [%] | viability, T/C [24] [%] | viability, T/C [25] [%] | viability, T/C [26] [%] | viability, T/C [27] [%] | viability, T/C [28] [%] | viability, T/C [29] [%] | viability, T/C [30] [%] | further results
1 | CC(C)n1nc(-c2ccc3oc(N)nc3c2)c2c(N)ncnc21 + CC1OCC2(CCN(c3cnc(Sc4ccnc(N)c4Cl)c(N)n3)CC2)C1N | > 100 | > 100 | > 100 | > 100 | < 0.316 | 132 | 138 | 132 | 109 | 140 | 84.8 | 127 | 81.2 | 61.5 | 24.8 | – | – | – | – | – | viability, T/C (second compound 0.1 µM, first compound 0.000316 µM): 89.9%; viability, T/C (second compound 0.1 µM, first compound 0.001 µM): 93.2%; viability, T/C [6]: 133%; viability, T/C [7]: 162%; viability, T/C (second compound 0.316 µM, first compound 0.000316 µM): 101%; viability, T/C (second compound 0.316 µM, first compound 0.001 µM): 115%; viability, T/C [10]: 133%; viability, T/C [11]: 166%; viability, T/C (second compound 1 µM, first compound 0.000316 µM): 115%; viability, T/C (second compound 1 µM, first compound 0.001 µM): 111%; viability, T/C [14]: 162%; viability, T/C [15]: 170%; viability, T/C (second compound 3.16 µM, first compound 0.000316 µM): 125%; viability, T/C (second compound 3.16 µM, first compound 0.001 µM): 129%; viability, T/C [18]: 140%; viability, T/C [19]: 123%; viability, T/C (second compound 10 µM, first compound 0.000316 µM): 30.2%; viability, T/C (second compound 10 µM, first compound 0.001 µM): 62.6%; viability, T/C [22]: 32.7%; viability, T/C [23]: 30.8%
2 | CCN1CCN(Cc2ccc(Nc3ncc(F)c(-c4cc(F)c5nc(C)n(C(C)C)c5c4)n3)nc2)CC1 + CC1OCC2(CCN(c3cnc(Sc4ccnc(N)c4Cl)c(N)n3)CC2)C1N | > 1000 | > 1000 | > 1000 | 842 | 64.9 | 102 | 129 | 96.7 | 139 | 112 | 130 | 98.1 | 117 | 72.4 | 36 | 143 | 124 | 135 | 74.4 | 164 | viability, T/C [6]: 121%; viability, T/C [7]: 110%; viability, T/C [10]: 105%; viability, T/C [11]: 115%; viability, T/C [14]: 105%; viability, T/C [15]: 113%; viability, T/C [31]: 87.3%; viability, T/C [18]: 95.2%; viability, T/C [19]: 96.7%; viability, T/C [32]: 150%; viability, T/C [33]: 39.2%; viability, T/C [22]: 72%; viability, T/C [23]: 84.8%; viability, T/C [34]: 18.4%; viability, T/C [35]: 10.7%
3 | O=C(c1cc(Cc2n[nH]c(=O)c3ccccc23)ccc1F)N1CCN(C(=O)C2CC2)CC1 + COc1cc2nc(C)nc(NC(C)c3cc(N)cc(C(F)(F)F)c3)c2cc1OC1CCOC1 | > 10000 | > 10000 | > 10000 | > 10000 | > 10000 | 84.2 | 91.5 | 80.3 | 79.2 | 79.4 | 81.5 | 104 | 115 | 115 | 121 | 92.3 | 77.2 | 95.5 | 80.5 | 69.1 | viability, T/C [36]: 69.3%; viability, T/C [37]: 75%; viability, T/C [38]: 98.9%; viability, T/C [39]: 95.9%; viability, T/C [31]: 87%; viability, T/C [40]: 68.1%; viability, T/C [41]: 89.6%; viability, T/C [32]: 117%; viability, T/C [33]: 113%; viability, T/C [42]: 96.8%; viability, T/C [43]: 88.8%; viability, T/C [34]: 122%; viability, T/C [35]: 117%; viability, T/C [44]: 72%; viability, T/C [45]: 89.5%
4 | CC1(C)CCC(CN2CCN(c3ccc(C(=O)NS(=O)(=O)c4ccc(NCC5CCOCC5)c([N+](=O)[O-])c4)c(Oc4cnc5[nH]ccc5c4)c3)CC2)=C(c2ccc(Cl)cc2)C1 + CNCc1ccccc1-c1csc(C(C)Nc2nc(C)nc3cc(OC)c(OC)cc23)c1 | 2180 | 2190 | 2050 | 1550 | < 31.6 | 91.4 | 106 | 94.7 | 101 | 88.5 | 96.7 | 45.1 | 98.6 | 0.25 | 0.32 | 97.5 | 92.9 | 95.2 | 104 | 126 | viability, T/C [36]: 29.4%; viability, T/C [37]: 4.56%; viability, T/C [38]: 27.4%; viability, T/C [39]: 2.36%; viability, T/C [31]: 132%; viability, T/C [40]: 13.6%; viability, T/C [41]: 2.22%; viability, T/C [32]: 64.8%; viability, T/C [33]: 102%; viability, T/C [42]: 5.49%; viability, T/C [43]: 0.23%; viability, T/C [34]: 1.83%; viability, T/C [35]: 0.35%; viability, T/C [44]: 0.66%; viability, T/C [45]: 0.23%
5 | Cn1ncnc1[C@H]1c2n[nH]c(=O)c3cc(F)cc(c23)N[C@@H]1c1ccc(F)cc1 | – | – | – | – | – | – | – | – | – | – | – | – | – | – | – | – | – | – | – | – | viability, T/C (compound 0.01 µM): 82.8% [middle of 5 runs]; IC50 (curve of compound): > 100 nM
